According to patent US20100196510A1, “COMPOSITION AND TREATMENT” (priority 2007, published 2010):

Key:
[1] = test system: rat sensory neurones (dorsal root ganglia); experiment: Neurite length of sensory neurones (anti β-Tubulin) in cisplatin-induced toxicity model; assay type: cell-based; conditions: for Mean neurite Length / neurite length, % Control without cisplatin: 10 ng/ml + cisplatin 3 μg/ml; for effect on cisplatin-induced loss of neurites (in words): 10 ng/ml, cisplatin 3 μg/ml
Protocol: (§1) The low molecular weight glycosaminoglycans are referred to in the examples as 2400 D.
(§2) 1. neurone cell bodies stained with an anti MAP 2 antibody (microtubule associated protein, and 2. neurite network density stained with an anti β-Tubulin antibody
Rat sensory neurones were prepared according to the method described by Hall et al 1997(3). Briefly, a female rat (15 days gestation) was killed by cervical dislocation (Rats Wistar; Janvier, Le Genest-St-Isle, France) and the foetuses removed from the uterus. Their spinal cords with the dorsal root ganglia (DRG) were removed and placed in ice-cold medium of Leibovitz (L15, Fisher 11415-049) containing Penicillin 50 Ul/ml—Streptomycin 50 μg/ml (PS, 1%) and bovine serum albumin (BSA 1%, Sigma A6003). The DRG were recovered and dissociated by trypsinisation for 20 min at 37° C. (trypsin EDTA 10×, 10%, Fisher 15400054) diluted in PBS without calcium and magnesium (Fisher 2007-03). […] The cell suspension was triturated with a 10 ml pipette and centrifuged at 350×g for 10 min at room temperature. The pellet of dissociated cells was then resuspended in defined culture medium.
Viable cells were counted in a Neubauer cytometer using the trypan blue exclusion test (Sigma) and seeded at a density of 30 000 cells/well in 96 well-plates (Nunc). Wells were pre-coated with poly-L-lysine (10 μg/ml, Sigma P2636) in ultra pure sterile water (Merck Eurolab 60759.01).
Cells were allowed to adhere for 2 h and maintained in a humidified incubator at 37° C. in 5% CO2/95% air atmosphere.
(§3) Six wells per condition were carried out to assess neuronal survival. After 48 hours and 72 hours of incubation, the neuronal cells were fixed for 5 minutes in an ethanol/acetic acid solution (95%/5%) at −20° C. and rinsed 3 times in PBS.
(§4) Cell bodies of sensory neurones were labelled by monoclonal anti MAP-2 antibody (Sigma M4403, see photograph 1A) and the neurite of sensory neurones were labelled by monoclonal β-Tubulin antibody (Sigma T8660). These antibodies were diluted at 1:400 in incubation solution (PBS with 5% of FCS and 0.1% of saponin, Sigma S-7900). These antibodies specifically label neurone cell bodies and neurites, respectively.
After 2 hours of incubation, the cells were washed in PBS and incubated with Alexa Fluor 488 goat anti mouse IgG (Molecular Probes A11001) diluted at 1:300 in incubation solution to reveal the MAP-2 and the β-Tubulin antibodies. Cell nuclei were stained with a fluorescent marker (Hoechst staining solution, SIGMA H6024, 1 μg/ml in incubation solution during 1 hour).
(§5) For each condition, 2 pictures per well (12 pictures per condition) were taken using In Cell Analyzer 1000 (Amersham Biosciences) controlled by the computer software In Cell Analyzer 1000 3.2. For the MAP-2 labelling, the magnification was ×10, for the β-Tubulin labelling, the magnification was ×20. For each labelling, all the images were taken in the same conditions.
(§6) Analysis of the number of cell bodies labelled with anti MAP-2 antibodies, and total length of neurites labelled with anti β-Tubulin antibodies, were carried out using In Cell Analyzer 1000 3.2.Workstation software. The results were expressed in percentage compared to the vehicle. The comparisons of each group were carried out using the unpaired T test.

[2] = test system: rat sensory neurones (dorsal root ganglia); experiment: Number of neuronal cell bodies per field (anti MAP-2) in cisplatin-induced toxicity model; assay type: cell-based; conditions: for number of cell bodies per field, Average / number of cell bodies, % Control without cisplatin: 10 ng/ml + cisplatin 3 μg/ml; for effect on cisplatin-induced loss of cell bodies (in words): 10 ng/ml, cisplatin 3 μg/ml
Protocol: as §1, §2
Briefly, a female rat (15 days gestation) was killed by cervical dislocation (Rats Wistar; Janvier, Le Genest-St-Isle, France) and the foetuses removed from the uterus. […] The DRG were recovered and dissociated by trypsinisation for 20 min at 37° C. […] The cell suspension was triturated with a 10 ml pipette and centrifuged at 350×g for 10 min at room temperature. The pellet of dissociated cells was then resuspended in defined culture medium.
Viable cells were counted in a Neubauer cytometer using the trypan blue exclusion test (Sigma) and seeded at a density of 30 000 cells/well in 96 well-plates (Nunc).
as §3, §4
Cell nuclei were stained with a fluorescent marker (Hoechst staining solution, SIGMA H6024, 1 μg/ml in incubation solution during 1 hour).
as §5, §6

NGF: Nerve Growth Factor, a specific growth factor for sensory neurons; reference compound
Mean neurite Length ([1]; 48 hours): 6362.44 μm
neurite length, % Control without cisplatin ([1]; 48 hours): 117%
Mean neurite Length ([1]; 72 hours): 6000.30 μm
neurite length, % Control without cisplatin ([1]; 72 hours): 113%
effect on cisplatin-induced loss of neurites (in words) ([1]; 48 hours): prevented cisplatin-induced loss of neurites
effect on cisplatin-induced loss of neurites (in words) ([1]; 72 hours): prevented cisplatin-induced loss of neurites
number of cell bodies per field, Average ([2]; 48 hours): 58.33
number of cell bodies, % Control without cisplatin ([2]; 48 hours): 96%
number of cell bodies per field, Average ([2]; 72 hours): 54.92
number of cell bodies, % Control without cisplatin ([2]; 72 hours): 102%
effect on cisplatin-induced loss of cell bodies (in words) ([2]; 48 hours): almost completely prevented cisplatin-induced loss of cell bodies
effect on cisplatin-induced loss of cell bodies (in words) ([2]; 72 hours section (text prints 48 hours)): completely prevented cisplatin-induced loss of cell bodies
